PMC3480357, “Fragment-Hopping-Based Discovery of a Novel Chemical Series of Proto-Oncogene PIM-1 Kinase Inhibitors” (PLoS ONE, 2012)

How the values were obtained:
[1] = molecular target: PIM-3 (Homo sapiens, UniProt Q86V86); assay: PIM-3 kinase ADP Hunter Plus assay; format: biochemical; details: 100 µM ATP, Figure 1
Procedure: Kinase activity was measured with the commercial ADP Hunter™ Plus assay (DiscoveRx Ref. #33-016), a homogeneous assay measuring ADP accumulation, as a universal product of kinase activity. The assay was conducted following the manufacturer’s recommendations and adapting the protein and substrate concentrations for optimal conditions. The kinase assay buffer was 15 mM HEPES, pH 7.4, 20 mM NaCl, 1 mM EGTA, 0.02% Tween-20, 10 mM MgCl2 and 0.1 mg/ml BGG (bovine γ-globulin). All PIM kinase assays were performed with 100 µM PIMtide ([…]) as the peptide substrate and 100 µM ATP. The protein concentrations were 50, 350 and 500 ng/µl for PIM-1, 2 and 3, respectively. To calculate the IC50 of the ETP-compounds, serial 1∶5 dilutions were prepared and the reaction was started with the addition of ATP. The reaction was incubated for 1 h at 25°C. Reagents A and B (DiscoveRx) were sequentially added to the wells, and the plates were incubated for 30 min at 37°C. Fluorescence counts were read in a Victor instrument (Perkin Elmer) with the recommended settings (544 and 580 nm as the excitation and emission wavelengths, respectively). Values were plotted against the inhibitor concentrations and fit to a sigmoid dose–response curve using GraphPad software.

[2] = molecular target: PIM-2 (Homo sapiens, UniProt Q9P1W9); assay: PIM-2 kinase ADP Hunter Plus assay; format: biochemical; details: 100 µM ATP
PIM-2, sequence (Q9P1W9 whole entry): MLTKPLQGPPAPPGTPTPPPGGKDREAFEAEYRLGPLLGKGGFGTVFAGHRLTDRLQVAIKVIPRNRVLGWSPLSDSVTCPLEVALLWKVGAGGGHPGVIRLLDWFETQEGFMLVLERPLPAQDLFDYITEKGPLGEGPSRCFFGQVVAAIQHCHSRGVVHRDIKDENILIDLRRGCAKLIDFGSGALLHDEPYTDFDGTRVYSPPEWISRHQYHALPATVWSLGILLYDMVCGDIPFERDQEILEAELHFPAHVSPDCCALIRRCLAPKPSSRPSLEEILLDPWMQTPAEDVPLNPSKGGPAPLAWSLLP

- IC50 [1]: 1000 nM
- IC50 [2]: 443 nM
Compound: CC(=O)c1cccc(-c2cnc3ccc(NCC4CC4)nn23)c1 [Compound 2, reference compound]
